Counter-ions that a name gives are not always drawn. A value given as a limit tells only on which side of the number the result lay.

Chain of CCR8 (P51685 whole entry, the tested form may be a part): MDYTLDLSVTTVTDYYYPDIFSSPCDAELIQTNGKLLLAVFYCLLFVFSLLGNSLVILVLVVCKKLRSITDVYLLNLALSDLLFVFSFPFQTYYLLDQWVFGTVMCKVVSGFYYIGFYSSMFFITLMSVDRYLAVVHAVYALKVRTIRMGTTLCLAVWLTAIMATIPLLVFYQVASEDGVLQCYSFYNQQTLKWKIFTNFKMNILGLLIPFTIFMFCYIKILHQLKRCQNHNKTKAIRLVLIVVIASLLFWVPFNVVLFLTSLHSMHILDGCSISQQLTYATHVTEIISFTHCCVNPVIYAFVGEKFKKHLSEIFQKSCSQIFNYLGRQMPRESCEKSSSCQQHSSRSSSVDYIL

The first assay has as its target CCR8 (Homo sapiens, UniProt P51685). The experiment in a line: Tango assay (Tango-CCR8-Gal4-CHO-K1 cells, CCL1-stimulated, ONE-Glo luminescence). Particulars: Tango Assay IC50, Inhibition of CCR8 Tango cell in vitro.
Take `Cc1ccccc1C(=O)Nc1ccc(S(=O)(=O)NC(C)C2CCCN(C(=O)CNC(=O)OC(C)(C)C)C2)c2ccccc12` (centres unmarked) [Compound 155D, tert-butyl (2-(3-(1-(4-(2-methylbenzamido)naph-thalene-1-sulfonamido)ethyl)piper-idin-1-yl)-2-oxoethyl)carbamate]: the IC50 (in general, the concentration needed to halve the response being measured) was > 10000 nM.
For `Cc1ccccc1C(=O)Nc1cc(Cl)c(S(=O)(=O)N[C@@H](C)C2CCNCC2)cc1Cl` [Compound 243B, (S)-N-(2,5-dichloro-4-(N-(1-(piperidin-4-yl)ethyl)sulfamoyl)phen-yl)-2-methylbenzamide hydrochloride], the IC50 was > 100000 nM.
As to `CC(NS(=O)(=O)c1ccc2[nH]ncc2c1)C1CCCCC1` (centres unmarked) [Compound 79, N-(1-cyclohexylethyl)-1H-indazole-5-sulfonamide], the IC50 is > 1000 nM.
In turn, `Cc1ccccc1C(=O)Nc1ccc(S(=O)(=O)NCc2cccc(N(C)C)c2)c2ccccc12` [Compound 25, N-(4-(N-(3-(dimethylamino)benzyl)sulfamoyl)naphthalen-1-yl)-2-methylbenzamide] showed an IC50 of 1040 nM.
On to `Cc1ccccc1C(=O)Nc1ccc(S(=O)(=O)Nc2ccc3c(c2)N(C(=O)CN(C)C)CC3)c2ccccc12` [Compound 36, N-(4-(N-(1-(2-(dimethylamino)acetyl)indolin-6-yl)sulfamoyl)naphthalen-1-yl)-2-methylbenzamide], for which the IC50 was > 10000 nM.
Compound `Cc1ccccc1C(=O)Nc1ccc(S(=O)(=O)N[C@H](C)C2CCNCC2)cc1Br` [Compound 192A, (R)-N-(2-bromo-4-(N-(1-(piperidin-4-yl)ethyl)sulfamoyl)phen-yl)-2-methylbenzamide hydrochloride] displayed an IC50 of 26 nM.
The same measure, in the same setting: the same measure for `Cc1cc(S(=O)(=O)N[C@H](C)C2CCN(C3CCCC3)CC2)ccc1NC(=O)c1ccccc1C` [Compound 247, (R)-N-(4-(N-(1-(1-cyclopentylpiperidin-4-yl)ethyl)sulfamoyl)-2-methylphenyl)-2-methylbenzamide]: 1 nM; for `COc1cc(NC(=O)c2ccccc2C)c(C)cc1S(=O)(=O)N[C@H](C)C1CCNCC1` [Compound 314, (R)-N-(5-methoxy-2-methyl-4-(N-(1-(piperidin-4-yl)ethyl)sulfamoyl)phen-yl)-2-methylbenzamide hydrochloride]: 17 nM.
Regarding `Cc1cc(S(=O)(=O)N[C@H](C)C2CCNCC2)ccc1NC(=O)c1ccsc1C` [Compound 250A, (R)-2-methyl-N-(2-methyl-4-(N-(1-(piperidin-4-yl)ethyl)sulfamoyl)phenyl)thiophene-3-carboxamide hydrochloride], the IC50 turned out to be 105 nM.
Still for that read-out and setting: the same measure for `Cc1ccccc1C(=O)Nc1ccc(S(=O)(=O)N[C@H](C)C2CCNCC2)c(F)c1Cl` [Compound 246A, (R)-N-(2-chloro-3-fluoro-4-(N-(1-(piperidin-4-yl)ethyl)sulfamoyl)phenyl)-2-methylbenzamide hydrochloride]: 79 nM.
Compound `CC(=O)N1CCCC(C(C)NS(=O)(=O)c2ccc(NC(=O)c3ccccc3C)c3ccccc23)C1` (single isomer, unassigned) [Compound 18A, N-(4-(N-(1-(1-acetylpiperidin-3-yl)ethyl)sulfamoyl)naph-thalen-1-yl)-2-methylbenzamide] gave an IC50 of 21 nM.
For `Cc1ccccc1C(=O)Nc1cc(Cl)c(S(=O)(=O)N[C@@H](C)C2CCN(C)CC2)cc1Cl` [Compound 307, (S)-N-(2,5-dichloro-4-(N-(1-(1-methylpiperidin-4-yl)ethyl)sulfamoyl)phenyl)-2-methylbenzamide hydrochloride], the IC50 is > 100000 nM.
Still for that read-out and setting: the result for `Cc1cc(S(=O)(=O)N[C@H](C)C2CCNCC2)ccc1NC(=O)C(C)(C)C` [Compound 209A, (R)-N-(2-methyl-4-(N-(1-(piperidin-4-yl)ethyl)sulfamoyl)phenyl)pivalamide hydrochloride] reads 1100 nM.

The assay is the same for the next values; noted with them: read-out: Tango Assay IC50, Inhibition of CCR8 Tango cell in vitro.
`Cc1ccccc1C(=O)Nc1ccc(S(=O)(=O)NC(C)C2CCNC2)c2ccccc12` (centres unmarked) [Compound 66, 2-methyl-N-(4-(N-(1-(pyrrolidin-3-yl)ethyl)sulfamoyl)naph-thalen-1-yl)benzamide]: the IC50 was determined as 85 nM.

The values above are taken from patent US12552753B2, “Methods and compositions for targeting Tregs using CCR8 inhibitors” (Nanjing Immunophage Biomedical Co., Ltd., priority 2020, dated 2026).
